Laboratory results taken from patent publication US7662767B2, “Polynucleotide intercalator interceptors and inhibitors” (Materials Evolution and Development USA, Inc., priority 2000, dated 2010).
Where “and” joins values, the source holds several entries; their conditions need not be identical. Equal values may be shown once. Read-outs that look alike come from different tables or passages of the source.

Tests used:
[1] = AO-CAF, cited from earlier work
[2] = tested on: chicken erythrocyte nuclear chromatin; assay: Removal of acridine orange from stained chicken erythrocyte nuclear chromatin by xanthine rinse, fluorescence microscopy; conditions: slides stained with 10 mM AO; rinse with 50 mM for 10 minutes
[3] = Acridine orange self-association (AO-AO dimer), spectrofluorometry λem 530 nm; type: binding; conditions: hydrochloride
Method: Association constants were calculated using a modification of an equation described by Zaini et al. (1999) to determine equilibrium constants for weakly bound complexes by absorbance spectrophotometry. By definition K=Xd/(Xm* Xm), where K is the binding constant Kassoc, Xd is the concentration of the AO dimer and Xm is the concentration of the AO monomer. Conservation of mass gives Xt=Xm+2*Xd, where Xt is the total concentration of AO in solution. Rearranging the conservation of mass equation gives Xm=Xt−2*Xd, and substituting into the equation for Kassoc and rearranging gives Equation 4: Kassoc(Xt*Xt−4*Xt*Xd+4*Xd*Xd)−Xd=0 EQUATION 4:
Rearranging gives: Xd*Xd−(Xt+1/(4*.Kassoc)*Xd+Xt*Xt/4=0 EQUATION5:
Applying the quadratic formula (X=[−B±SQRT(B^2−4AC]/2A) to Equation 3-5 and taking a physically reasonable root gives Equation 3-6: Xd=[Xt+1/(4*K)−SQRT(Xt/(2*K)+1/[…])]/2 EQUATION 6:
Where SQRT ( ) indicates taking the square root of the content of the parentheses. The fluorescence values at λem 530 nm (F530) is a function of Xt and F530=Xd*ε, where “ε” is the fluorescence yield of the dimer. The equation was solved by non-linear least squares using Prism™ software and binding constants determined. Concentrations of the reactants were adjusted for dilution whereas AO concentrations are reported without adjustment for dilution. Fluorescence values (fi) are reported as raw data normalized to scale and not adjusted by a dilution factor following aliquot additions. Absorbance data taken at 468 nm was also used to calculate the Kassoc for the AO-AO dimer using Equation 6.
The error bars shown standard deviation unless obscured by legend symbols (n=4). The results also indicate the effect of a physiological concentration of NaCl [150 mM] on the fluorescence of AO at both λem 530 nm (green) and λem 635 nm (red) over a range of AO concentrations from 0.5 μM to 10.0 μM. At an AO concentration of between 5-6 μM, the amplitude of green fluorescence at λem 530 nm increases abruptly. The red fluorescence (λem 635 nm) also increases abruptly between 5-6 μM. However, the magnitude of the increase at λem 635 nm is proportionally less than that found at λem 530 nm. As the concentration of AO increases from 5 μM to 6 μM, the mean fluorescence values were changed from 457±16 to 5,197 ±289 at λem 530 nm and from 174±4 to 1,371±41 at λem 635 nm (n=4). […] The example shown in FIG. 3-2B depicts the binding plot calculated at λem 530 nm for the molecular association of AO with itself in the absence of and in the presence of NaCl. The association constants (Kassoc) for AO derived from these two plots are 118,000±16,120 M^−1 (R^2=0.98) in the presence of NaCl [150 mM] and 37,410±4,758 M^−1(R^2=0.97) in the absence of NaCl. Error bars denote standard deviation unless hidden by legend symbols (n=4). The presence of 150 mM NaCl has no significant effect on the fluorescence intensity of AO at either λem 530 nm or λem 635 nm at AO concentrations of 6 μM and above.
Association constants were calculated for AO self-association by assuming the fluorescence values derived at λem 530 nm reflect the extent of dimer formation. Association constants (Kassoc) were calculated from the change in mean fluorescence values (delta fluorescence) at λem 530 nm (see FIG. 3-2B). At AO concentrations from 0.5 μM to 5 μM, Kassoc was determined to be 37,410±4,758 M^−1 (R^2=0.97) in the absence of NaCl and 118,000±16,120 M^−1 (R^2=0.98) in the presence of 150 mM NaCl (see FIG. 3-2B). For AO concentrations >5 μM, the association constants were determined to be 46,700±1,807 M^−1 (R^2=0.99) for AO alone and 41,820±3,671 M^−1 (R^2=0.99) for AO in the presence of NaCl. This indicates a significant AO concentration dependent difference in the association constant in the presence of 150 mM NaCl at low AO concentrations (<5 μM) but not a significant difference at AO concentrations above 5 μM.

Structure (SMILES) | K ± S.D. ([1]; Absorbance plus NaCl 150 mM, AO [20 μM], CAF [1-2000 μM], Kapuscinski & Kimmel, 1993) | K ± S.D. ([1]; Absorbance, AO [10 μM], CAF [1-5000 μM], Larsen et al., 1996) | K ± S.D. ([1]; Absorbance, AO [20 μM], CAF [1-2000 μM], Kapuscinski & Kimmel, 1993) | fluorescence intensity after rinse [2] | K ± S.D. ([3]; Fluorescence plus NaCl 150 mM, AO [0.5-5.0 μM]) | K ± S.D. ([3]; Fluorescence plus NaCl 150 mM, AO [0.5-5.0 μM], listed as AO-AO) | K ± S.D. ([3]; Fluorescence plus NaCl, AO [6.0-10.0 μM]) | K ± S.D. ([3]; Fluorescence plus NaCl, AO [6.0-10.0 μM], listed as AO-AO) | K ± S.D. ([3]; Fluorescence, AO [0.5-5.0 μM], absence of NaCl) | K ± S.D. ([3]; Fluorescence, AO [0.5-5.0 μM], absence of NaCl, listed as AO-AO) | K ± S.D. ([3]; Fluorescence, AO [6.0-10.0 μM], absence of NaCl) | K ± S.D. ([3]; Fluorescence, AO [6.0-10.0 μM], absence of NaCl, listed as AO-AO)
Cn1c(=O)c2c(ncn2C)n(C)c1=O [1,3,7-trimethyl xanthine (caffeine), 1,3,7-trimethyl xanthine] | 169 ± 9 M⁻¹ | 258 ± 5 M⁻¹ | 258 ± 7 M⁻¹ | reduced the fluorescence intensity to background level |  |  |  |  |  |  |  | 
CN(C)c1ccc2cc3ccc(N(C)C)cc3nc2c1.Cl [AO, 3,6-bis[dimethylamino]acridine hydrochloride] |  |  |  |  | 118,000±16,120 M^−1 and 118,000 M^−1 | 118,000 ± 16,120 M^−1 | 41,820±3,671 M^−1 | 41,820 ± 3,671 M^−1 | 37,410±4,758 M^−1 and 37,410 M^−1 | 37,410 ± 4,758 M^−1 | 46,700±1,807 M^−1 | 46,700 ± 1,807 M^−1
